Measured values reported in the supplement of paper PMC11451515.

Key:
Details in all cases: 48 h
[1] = system: NOMO1; experiment: AUC of viability dose-response curve (% viability x log10 dose units); higher = less sensitive
Summary of the method: (§1)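 Viability of medium-adapted leukemia cells was measured by CellTiter-Glo One luminescence after 48 h at 37°C with library compounds in DMSO. Doses were 11 threefold steps from 47 μM to 0.79 nM, in 1536-well plates at 500 or 1000 cells/well. Signals were normalised per plate to DMSO and cell-free wells and fitted with a four-parameter log-logistic model on log10 dose. Area under the curve was integrated by trapezoidal rule, with curves exceeding full viability scaled and failed quality-control curves removed.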

[2] = system: SEM cells; experiment: as above
Summary of the method: as §1

[3] = system: P12-Ichikawa; experiment: as above
Summary of the method: as §1

[4] = system: NOMO1; experiment: cell viability relative to DMSO control; higher = less cytotoxic
Summary of the method: (§2)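 NOMO1, SEM and P12-Ichikawa leukemia cells spent at least four passages adapting to each medium before use. They were seeded at 500 cells/well (NOMO1, SEM) or 1000 cells/well (P12-Ichikawa) in 5 μl in 1536-well plates and pin-dosed with library compounds in DMSO at 11 threefold steps from 47 μM down to 0.79 nM. After 48 h at 37°C, CellTiter-Glo One luminescence was read. Viability is reported as a percentage of the DMSO wells on each plate, with cell-free wells as background.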

[5] = system: SEM cells; experiment: as above
Summary of the method: as §2

[6] = system: P12-Ichikawa; experiment: as above
Summary of the method: as §2

COc1c(Cl)cc2c([nH]c3cnccc32)c1NC(=O)c1cccnc1C
AUC of viability dose-response curve
Details | [1] | [2] | [3]
HPLM + 10% dialyzed FBS | 464 | 469 | 462
RPMI 5 mM glucose + 10% FBS | 473 | 405 | 468
RPMI 5 mM glucose + 10% dialyzed FBS | 471 | 465 | 454

cell viability [%]
Details | [4] | [5] | [6]
HPLM + 10% dialyzed FBS, 0.000781 µM | 115 | 100 | 103
HPLM + 10% dialyzed FBS, 0.00234 µM | 100 | 116 | 99.3
HPLM + 10% dialyzed FBS, 0.00702 µM | 110 | 119 | 102
HPLM + 10% dialyzed FBS, 0.0211 µM | 105 | 92 | 106
HPLM + 10% dialyzed FBS, 0.0632 µM | 123 | 114 | 107
HPLM + 10% dialyzed FBS, 0.19 µM | 124 | 103 | 109
HPLM + 10% dialyzed FBS, 0.569 µM | 122 | 118 | 99
HPLM + 10% dialyzed FBS, 1.71 µM | 115 | 108 | 99.1
HPLM + 10% dialyzed FBS, 5.12 µM | 108 | 107 | 94.9
HPLM + 10% dialyzed FBS, 15.4 µM | 102 | 103 | 94.7
HPLM + 10% dialyzed FBS, 46.1 µM | 89.4 | 84.8 | 93.1
RPMI 5 mM glucose + 10% FBS, 0.000781 µM | 99.8 | – | 107
RPMI 5 mM glucose + 10% FBS, 0.00234 µM | 102 | – | 105
RPMI 5 mM glucose + 10% FBS, 0.00702 µM | 98.4 | – | 107
RPMI 5 mM glucose + 10% FBS, 0.0211 µM | 101 | – | 108
RPMI 5 mM glucose + 10% FBS, 0.0632 µM | 101 | – | 112
RPMI 5 mM glucose + 10% FBS, 0.19 µM | 108 | – | 108
RPMI 5 mM glucose + 10% FBS, 0.569 µM | 111 | – | 96.1
RPMI 5 mM glucose + 10% FBS, 1.71 µM | 108 | – | 105
RPMI 5 mM glucose + 10% FBS, 5.12 µM | 98.2 | – | 110
RPMI 5 mM glucose + 10% FBS, 15.4 µM | 102 | – | 105
RPMI 5 mM glucose + 10% FBS, 46.1 µM | 99 | – | 96.9
RPMI 5 mM glucose + 10% dialyzed FBS, 0.000781 µM | 84 | 93.6 | 102
RPMI 5 mM glucose + 10% dialyzed FBS, 0.00234 µM | 105 | 95.3 | 110
RPMI 5 mM glucose + 10% dialyzed FBS, 0.00702 µM | 103 | 108 | 104
RPMI 5 mM glucose + 10% dialyzed FBS, 0.0211 µM | 96.1 | 97.5 | 96.9
RPMI 5 mM glucose + 10% dialyzed FBS, 0.0632 µM | 98.9 | 110 | 106
RPMI 5 mM glucose + 10% dialyzed FBS, 0.19 µM | 105 | 107 | 106
RPMI 5 mM glucose + 10% dialyzed FBS, 0.569 µM | 115 | 101 | 97.7
RPMI 5 mM glucose + 10% dialyzed FBS, 1.71 µM | 116 | 125 | 94.1
RPMI 5 mM glucose + 10% dialyzed FBS, 5.12 µM | 98.2 | 106 | 95.4
RPMI 5 mM glucose + 10% dialyzed FBS, 15.4 µM | 104 | 105 | 95.6
RPMI 5 mM glucose + 10% dialyzed FBS, 46.1 µM | 101 | 90.1 | 82.8

CC(=O)SC[C@@H](C)C(=O)N1CCC[C@H]1C(=O)N[C@@H](Cc1ccccc1)C(=O)O
AUC of viability dose-response curve
Details | [1] | [2] | [3]
HPLM + 10% dialyzed FBS | 448 | 454 | 466
RPMI 5 mM glucose + 10% FBS | 450 | 454 | 466
RPMI 5 mM glucose + 10% dialyzed FBS | 466 | 472 | 462

cell viability [%]
Details | [4] | [5] | [6]
HPLM + 10% dialyzed FBS, 0.000781 µM | 117 | 116 | 99.5
HPLM + 10% dialyzed FBS, 0.00234 µM | 119 | 107 | 108
HPLM + 10% dialyzed FBS, 0.00702 µM | 95.1 | 99.6 | 108
HPLM + 10% dialyzed FBS, 0.0211 µM | 105 | 110 | 104
HPLM + 10% dialyzed FBS, 0.0632 µM | 115 | 115 | 113
HPLM + 10% dialyzed FBS, 0.19 µM | 114 | 103 | 107
HPLM + 10% dialyzed FBS, 0.569 µM | 97.2 | 111 | 106
HPLM + 10% dialyzed FBS, 1.71 µM | 101 | 106 | 104
HPLM + 10% dialyzed FBS, 5.12 µM | 111 | 107 | 102
HPLM + 10% dialyzed FBS, 15.4 µM | 110 | 66.7 | 101
HPLM + 10% dialyzed FBS, 46.1 µM | 89.3 | 83.3 | 94.1
RPMI 5 mM glucose + 10% FBS, 0.000781 µM | 93.5 | 83.8 | 103
RPMI 5 mM glucose + 10% FBS, 0.00234 µM | 106 | 86.2 | 93.2
RPMI 5 mM glucose + 10% FBS, 0.00702 µM | 105 | 95.3 | 97.6
RPMI 5 mM glucose + 10% FBS, 0.0211 µM | 88.7 | 98.1 | 100
RPMI 5 mM glucose + 10% FBS, 0.0632 µM | 94.1 | 105 | 102
RPMI 5 mM glucose + 10% FBS, 0.19 µM | 100 | 97.7 | 97.8
RPMI 5 mM glucose + 10% FBS, 0.569 µM | 94.4 | 110 | 102
RPMI 5 mM glucose + 10% FBS, 1.71 µM | 94.5 | 97.2 | 96.7
RPMI 5 mM glucose + 10% FBS, 5.12 µM | 85.3 | 113 | 98.4
RPMI 5 mM glucose + 10% FBS, 15.4 µM | 82.5 | 87.1 | 91.3
RPMI 5 mM glucose + 10% FBS, 46.1 µM | 92.1 | 72.6 | 90
RPMI 5 mM glucose + 10% dialyzed FBS, 0.000781 µM | 103 | 95.1 | 99.7
RPMI 5 mM glucose + 10% dialyzed FBS, 0.00234 µM | 99.5 | 98.3 | 101
RPMI 5 mM glucose + 10% dialyzed FBS, 0.00702 µM | 107 | 114 | 102
RPMI 5 mM glucose + 10% dialyzed FBS, 0.0211 µM | 106 | 104 | 101
RPMI 5 mM glucose + 10% dialyzed FBS, 0.0632 µM | 112 | 104 | 99.7
RPMI 5 mM glucose + 10% dialyzed FBS, 0.19 µM | 89.5 | 103 | 100
RPMI 5 mM glucose + 10% dialyzed FBS, 0.569 µM | 106 | 107 | 95.4
RPMI 5 mM glucose + 10% dialyzed FBS, 1.71 µM | 97.3 | 101 | 101
RPMI 5 mM glucose + 10% dialyzed FBS, 5.12 µM | 103 | 110 | 92.2
RPMI 5 mM glucose + 10% dialyzed FBS, 15.4 µM | 106 | 101 | 90.8
RPMI 5 mM glucose + 10% dialyzed FBS, 46.1 µM | 91.5 | 85.7 | 85.2

C[C@H](CCC(=O)O)[C@H]1CC[C@H]2[C@@H]3[C@H](O)C[C@@H]4C[C@H](O)CC[C@]4(C)[C@H]3CC[C@]12C
AUC of viability dose-response curve
Details | [1] | [2] | [3]
HPLM + 10% dialyzed FBS | 443 | 417 | 448
RPMI 5 mM glucose + 10% FBS | 436 | 406 | 431
RPMI 5 mM glucose + 10% dialyzed FBS | 409 | 433 | 418

cell viability [%]
Details | [4] | [5] | [6]
HPLM + 10% dialyzed FBS, 0.000781 µM | 93.9 | 79.7 | 94.6
HPLM + 10% dialyzed FBS, 0.00234 µM | 93.7 | 80.7 | 87.9
HPLM + 10% dialyzed FBS, 0.00702 µM | 108 | 96.3 | 93.9
HPLM + 10% dialyzed FBS, 0.0211 µM | 99.5 | 80.3 | 92.4
HPLM + 10% dialyzed FBS, 0.0632 µM | 106 | 99.9 | 98.8
HPLM + 10% dialyzed FBS, 0.19 µM | 98.4 | 84 | 97.5
HPLM + 10% dialyzed FBS, 0.569 µM | 102 | 95 | 93.3
HPLM + 10% dialyzed FBS, 1.71 µM | 99 | 92.5 | 92.8
HPLM + 10% dialyzed FBS, 5.12 µM | 101 | 93.5 | 92.2
HPLM + 10% dialyzed FBS, 15.4 µM | 120 | 84.1 | 93.9
HPLM + 10% dialyzed FBS, 46.1 µM | 114 | 75.5 | 94.2
RPMI 5 mM glucose + 10% FBS, 0.000781 µM | 85 | 75.4 | 91
RPMI 5 mM glucose + 10% FBS, 0.00234 µM | 88.1 | 81.9 | 88.4
RPMI 5 mM glucose + 10% FBS, 0.00702 µM | 92.9 | 90.3 | 89.2
RPMI 5 mM glucose + 10% FBS, 0.0211 µM | 88.6 | 96.9 | 91.7
RPMI 5 mM glucose + 10% FBS, 0.0632 µM | 101 | 87.6 | 90.5
RPMI 5 mM glucose + 10% FBS, 0.19 µM | 87.1 | 76.5 | 90.1
RPMI 5 mM glucose + 10% FBS, 0.569 µM | 102 | 91 | 90.7
RPMI 5 mM glucose + 10% FBS, 1.71 µM | 91.2 | 80.2 | 90
RPMI 5 mM glucose + 10% FBS, 5.12 µM | 93.5 | 99.1 | 88.1
RPMI 5 mM glucose + 10% FBS, 15.4 µM | 90.3 | 81.9 | 89.8
RPMI 5 mM glucose + 10% FBS, 46.1 µM | 83 | 67 | 95.6
RPMI 5 mM glucose + 10% dialyzed FBS, 0.000781 µM | 73 | 87.5 | 81.1
RPMI 5 mM glucose + 10% dialyzed FBS, 0.00234 µM | 80.4 | 93.7 | 82.7
RPMI 5 mM glucose + 10% dialyzed FBS, 0.00702 µM | 82.5 | 105 | 93.3
RPMI 5 mM glucose + 10% dialyzed FBS, 0.0211 µM | 84.9 | 95 | 93
RPMI 5 mM glucose + 10% dialyzed FBS, 0.0632 µM | 88.9 | 85.5 | 89.6
RPMI 5 mM glucose + 10% dialyzed FBS, 0.19 µM | 88.8 | 79.4 | 85.3
RPMI 5 mM glucose + 10% dialyzed FBS, 0.569 µM | 83 | 91.4 | 88.2
RPMI 5 mM glucose + 10% dialyzed FBS, 1.71 µM | 79.8 | 92.2 | 87.2
RPMI 5 mM glucose + 10% dialyzed FBS, 5.12 µM | 89.2 | 95.3 | 86.5
RPMI 5 mM glucose + 10% dialyzed FBS, 15.4 µM | 99.2 | 95.1 | 85.9
RPMI 5 mM glucose + 10% dialyzed FBS, 46.1 µM | 92.4 | 79.7 | 91.1
